Results as given in ChEMBL document CHEMBL2412954, “Synthesis and characterization of time-resolved fluorescence probes for evaluation of competitive binding to melanocortin receptors” (Bioorg Med Chem, 2013).

What was measured:
Melanocortin receptor 4 [1] = target: T1, Melanocortin receptor 4 (Homo sapiens, UniProt P32245); test: Displacement of Eu-DTPA-PEGOMSH(7) from human MC4R expressed in […] cells after 1 hr by time-resolved fluorescence assay; assay type: cell-based, HEK293
Melanocortin receptor 4 [2] = target: T1, Melanocortin receptor 4; test: Displacement of Eu-DTPA-PEGO-NDP-alpha-MSH-NH2 from human MC4R expressed in […] cells after 1 hr by time-resolved fluorescence assay; assay type: cell-based, HEK293

T1 sequence (P32245 whole entry): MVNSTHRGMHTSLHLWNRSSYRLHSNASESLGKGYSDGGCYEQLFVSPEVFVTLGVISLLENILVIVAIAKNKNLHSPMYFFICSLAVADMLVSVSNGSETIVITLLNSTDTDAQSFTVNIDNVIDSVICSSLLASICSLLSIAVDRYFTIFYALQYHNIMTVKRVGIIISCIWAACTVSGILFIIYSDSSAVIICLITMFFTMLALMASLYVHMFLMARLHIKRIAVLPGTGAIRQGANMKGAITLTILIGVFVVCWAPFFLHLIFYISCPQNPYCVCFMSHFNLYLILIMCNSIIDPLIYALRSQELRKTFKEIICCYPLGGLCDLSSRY

SMILES | Ki (Melanocortin receptor 4 [1]; read-out: Ki) [nM] | Ki (Melanocortin receptor 4 [1]; hek293) | Ki (Melanocortin receptor 4 [2]; hek293) | Ki (Melanocortin receptor 4 [2]; read-out: Ki) [nM]
CCCC[C@H](NC(=O)[C@H](CO)NC(=O)CCCCCn1cc(CCCCOC(CCC(C)C(O)CCC(C)C(O)CCC(OCCCCc2cn(CCCCCC(=O)N[C@@H](CO)C(=O)N[C@@H](CCCC)C(=O)N[C@@H](CCC(=O)O)C(=O)N[C@@H](Cc3cnc[nH]3)C(=O)N[C@H](Cc3ccccc3)C(=O)N[C@@H](CCCNC(=N)N)C(=O)N[C@@H](Cc3c[nH]c4ccccc34)C(N)=O)nn2)C(C)CCC(O)C(C)CCC(O)C(C)C)C(C)C)nn1)C(=O)N[C@@H](CCC(=O)O)C(=O)N[C@@H](Cc1cnc[nH]1)C(=O)N[C@H](Cc1ccccc1)C(=O)N[C@@H](CCCNC(=N)N)C(=O)N[C@@H](Cc1c[nH]c2ccccc12)C(N)=O (some centres not stated) | 1.7 |  |  | 
CC(C)C(O)CCC(C)C(O)CCC(C)C(CCC(O)C(C)CCC(O)C(C)CCC(OCCCCc1cn(CCCCCC(=O)N[C@@H](CO)C(N)=O)nn1)C(C)C)OCCCCc1cn(CCCCCC(=O)N[C@@H](CO)C(N)=O)nn1 (some centres not stated) |  | Not Active | Not Active | 
CC(C)C(O)CCC(C)C(O)CCC(C)C(O)CCC(OCCCCc1cn(CCCCCC(=O)N[C@@H](CO)C(N)=O)nn1)C(C)CCC(O)C(C)CCC(O)C(C)C (some centres not stated) |  | Not Active | Not Active | 
CCCC[C@H](NC(=O)[C@H](CO)NC(=O)CCCCCn1cc(CCCCOC(CCC(O)C(C)CCC(O)C(C)CCC(O)C(C)C)C(C)CCC(O)C(C)CCC(O)C(C)C)nn1)C(=O)N[C@@H](CCC(=O)O)C(=O)N[C@@H](Cc1cnc[nH]1)C(=O)N[C@H](Cc1ccccc1)C(=O)N[C@@H](CCCNC(=N)N)C(=O)N[C@@H](Cc1c[nH]c2ccccc12)C(N)=O (some centres not stated) | 2.4 |  |  | 33
